What was measured:
[1] = Cytotoxicity against human MT2 cells assessed as cell viability measured after 4 days by XTT assay; type: toxicity, cell-based; settings: time 4 day
[2] = Displacement of [3H](S)-2-(tert-butoxy)-2-(2-methyl-4-(p-tolyl)quinolin-3-yl)acetic acid from LEDGF-binding site of recombinant T124/T125 polymorphic HIV1 integrase by LIDIA assay; set-up: species or system Human immunodeficiency virus 1
[3] = tested on: Human immunodeficiency virus 1; experiment: Antiviral activity against recombinant HIV1 NLRep-Rluc harbouring polymorphic T124/T125 integrase infected in human MT-2 cells assessed as inhibition of virus growth in presence of fetal bovine serum by measuring luciferase activity after 5 days; type: functional, organism-based, MT2
[4] = Metabolic stability in rat liver microsome assessed half life at 0.5 uM by LC-MS/MS analysis; type: ADME; settings: liver microsomes
[5] = Metabolic stability in human liver microsome assessed half life at 0.5 uM by LC-MS/MS analysis; type: ADME; settings: liver microsomes
[6] = Human immunodeficiency virus 1, NLRep, MT2, 120 h

SMILES | CC50 at 96 h [1] [nM] | IC50 [2] [nM] | EC50 [3, 6] [nM] | half-life at 0.5 µM [4] [h] | half-life at 0.5 µM [5] [h] | EC50 ([3]; mt2) [nM]
Cc1nc(C)c([C@H](OC(C)(C)C)C(=O)O)c(N2CCC(C)(C)CC2)c1-c1ccc(Cc2ccccc2)cc1 | ≥ 20000 | 13.4 | 12.2 |  |  | 
Cc1ccc(CCOc2ccc(-c3c(C)nc(C)c([C@H](OC(C)(C)C)C(=O)O)c3N3CCC(C)(C)CC3)cc2)cc1 | ≥ 33500 | 15.5 | 14.7 |  |  | 
Cc1nc(C)c([C@H](OC(C)(C)C)C(=O)O)c(N2CCC(C)(C)CC2)c1-c1ccc(SCCc2ccc(F)cc2)cc1 | ≥ 32000 | 98 | 15.6 | > 2 | > 2 | 
Cc1nc(C)c([C@H](OC(C)(C)C)C(=O)O)c(N2CCC(C)(C)CC2)c1-c1ccc(Oc2ccccc2)cc1 | ≥ 20000 | 53.5 | 37.5 |  |  | 
Cc1nc(C)c([C@H](OC(C)(C)C)C(=O)O)c(N2CCC(C)(C)CC2)c1-c1ccccc1 |  | 55.5 | 67 |  |  | 
Cc1nc(C)c([C@H](OC(C)(C)C)C(=O)O)c(N2CCC(C)(C)CC2)c1-c1ccc(OCCc2ccncc2)cc1 | ≥ 25000 |  | 0.6 |  |  | 
Cc1nc(C)c([C@H](OC(C)(C)C)C(=O)O)c(N2CCC(C)(C)CC2)c1-c1ccc(OCCc2ccc(Cl)cc2)cc1 | ≥ 33500 | 30.4 | 12 |  |  | 
COc1cccc(CCOc2ccc(-c3c(C)nc(C)c([C@H](OC(C)(C)C)C(=O)O)c3N3CCC(C)(C)CC3)cc2)c1 | ≥ 33500 | 15.9 | 1.7 | > 2 | > 2 | 
Cc1nc(C)c([C@H](OC(C)(C)C)C(=O)O)c(N2CCC(C)(C)CC2)c1-c1ccc(OCCCc2ccc(F)cc2)cc1 | ≥ 32000 | 35.5 | 11.9 | > 2 | > 2 | 
Cc1nc(C)c([C@H](OC(C)(C)C)C(=O)O)c(N2CCC(C)(C)CC2)c1-c1ccc(OCCc2ccccn2)cc1 | ≥ 25000 | 16.7 | 0.9 | 1.02 | 0.5 | 
Cc1ccc(CCOc2ccc(-c3c(C)nc(C)c([C@H](OC(C)(C)C)C(=O)O)c3N3CCC(C)(C)CC3)cc2)s1 | ≥ 25000 | 49.2 | 4.4 | > 2 | > 2 | 
Cc1nc(C)c([C@H](OC(C)(C)C)C(=O)O)c(N2CCC(C)(C)CC2)c1-c1ccc(-c2ccccc2)cc1 | ≥ 20000 | 30.7 | 31.2 |  |  | 
Cc1nc(C)c([C@H](OC(C)(C)C)C(=O)O)c(N2CCC(C)(C)CC2)c1-c1ccc(OCCc2ccccc2)cc1 | ≥ 20000 | 9.4 | 2.3 | > 2 | > 2 | 
Cc1nc(C)c([C@H](OC(C)(C)C)C(=O)O)c(N2CCC(C)(C)CC2)c1-c1ccc(CCCc2ccc(F)cc2)cc1 | ≥ 32000 | 73.3 | 22.6 | > 2 | > 2 | 
Cc1nc(C)c([C@H](OC(C)(C)C)C(=O)O)c(N2CCC(C)(C)CC2)c1-c1ccc(OCc2ccccc2)cc1 | ≥ 20000 | 30.2 | 11.3 |  |  | 
CCc1cccc(CC)c1-c1cc(-c2ccc3c4c(ccnc24)CCO3)c(C(OC(C)(C)C)C(=O)O)c(C)n1 (racemic) |  | 100000 | 190 |  |  | 
Cc1nc(C)c([C@H](OC(C)(C)C)C(=O)O)c(N2CCC(C)(C)CC2)c1-c1ccc(OC2CCCC2c2ccc(F)cc2)cc1 (stereo in doubt; 39a) | ≥ 32000 | 35.5 |  |  |  | 12
Cc1nc(C)c([C@H](OC(C)(C)C)C(=O)O)c(N2CCC(C)(C)CC2)c1-c1ccc(OC2CCCC2c2ccc(F)cc2)cc1 (stereo in doubt; 39b) |  | 17.7 |  |  |  | 5
Cc1nc(C)c([C@H](OC(C)(C)C)C(=O)O)c(N2CCC(C)(C)CC2)c1-c1ccc(OC2COCC2c2ccc(F)cc2)cc1 (stereo in doubt; 40a) | ≥ 32000 | 4.9 |  |  |  | 2

— ChEMBL document CHEMBL5046290, “Design, Synthesis, and Preclinical Profiling of GSK3739936 (BMS-986180), an Allosteric Inhibitor of HIV-1 Integrase with Broad-Spectrum Activity toward 124/125 Polymorphs” (J Med Chem, 2022)
